These results are taken from US20030133958A1, “External agent for the skin and whitening agent” (priority 2000, published 2003).

The structures appear in SMILES notation.

In data set [1] the test system is B-16 melanoma cells. Put plainly: Test for evaluating melanogenesis-inhibitory function (cell-whitening degree) in cell culture systems using B-16 melanoma cells. It counts as cell-based. More on the design: key to Whitening degree: ++: The whitening degree is higher than that observed when adding 450 μg/mL of vitamin C-magnesium phosphate.; +: The whitening degree is almost identical to that observed when adding 450 μ g/mL of vitamin C-magnesium phosphate.; ±: The whitening degree is not higher than that observed when adding 450 μg/mL of vitamin C-magnesium phosphate, but higher than that of the control.; −: The whitening degree is almost identical to that observed for the control. The note with it: B-16 melanoma cells. The source says:
(§1) The B-16 melanoma cell is one having an ability of producing melanin and therefore, the cells naturally grown by cell culture blacken. If a substance capable of inhibiting melanogenesis is present in the cell growth system during the cell growth, the blackening of the cells is inhibited and they relatively whiten. Accordingly, the whitening effect of each candidate substance can be evaluated on the basis of the degree of whiteness observed when adding a test sample relative to the degree of blackness observed for a control. […] To evaluate this cytotoxicity, the cell survival rate observed when adding a test sample to the system is compared with that observed for the control. Thus, the substantial whitening effect can be evaluated on the basis of the results of these cell-whitening test and cytotoxicity test.
An example of such a method for evaluating the melanogenesis-inhibitory function in a cell culture system using B-16 melanoma cells comprises, for instance, the steps of dispensing 2 ml/well of a culture medium to each well of a 6-well plate, inoculating a desired amount of melanoma cells to the medium, cultivating the cells by allowing the medium to stand at 37° C. and a carbon dioxide concentration of 5%. On the following day, a solution of a test sample is added and mixed with the culture medium to a predetermined concentration and the cell cultivation is continued. After 5 days from the initiation of the cultivation, the culture medium is replaced with fresh one and the solution of the test sample is again added thereto. On the next day, the medium is removed to thus recover the cells, followed by washing them with PBS (phosphate-buffered saline) and the determination of the degree of whiteness to thus evaluate the whitening effect of the test sample. In this connection, the melanogenesis-inhibitory function is evaluated by comparing the results thus obtained with the degree of whiteness observed when the same procedures are repeated using the vitamin C-magnesium phosphate as a known whitening agent instead of the test sample solution (positive control) and that observed when the procedures are repeated without addition of any test sample (control).
A culture medium was dispensed to wells of a 6-well plate (2 mL/well each), followed by inoculation of a desired amount of B-16 melanoma cells on each well, allowing the wells to stand at 37° C. and 5% CO2 to thus cultivate the cells. On the day subsequent thereto, a sample solution prepared was added to the wells with stirring and the cultivation was continued. The culture medium was replaced with fresh one on the 5th day from the initiation of the cultivation and the sample solution was again added to the wells. On the next day, the culture medium was removed to recover the cells, followed by washing them with PBS (phosphate buffered physiological saline) and then evaluation of the cell-whitening degree In this respect, the melanogenesis-inhibitory function was evaluated by comparing the cell-whitening degree thus obtained with that observed when the same procedures used above were repeated except that vitamin C-magnesium phosphate as a known whitening agent (positive control) was substituted for the sample solution used above and that observed when the same procedures used above were repeated except that any sample was not added (control), according to the following evaluation criteria.
The evaluation criteria for the cell-whitening degree are as follows: […]

For data set [2], the system named is B-16 melanoma cells. Description: Cell-survival rate (cytotoxicity) in B-16 melanoma cell culture. Particulars: mouse. In kind it is cell-based.
Text: as §1
The cell-survival rate at each added sample concentration can be determined according to the following formula
Cell-Survival Rate (%)=(A/B)×100
Wherein A represents the viable cell count observed for the system to which a sample is added and B represents the number of cells observed for the control system.

On to `C=C(C)[C@@H]1CC[C@]2(C(=O)O)CC[C@]3(C)[C@H](CC[C@@H]4[C@@]5(C)CC[C@H](O)C(C)(C)[C@@H]5CC[C@]43C)[C@@H]12` [Betulinic acid, betulinic acid], for which the Whitening degree entry in the data set with B-16 melanoma cells [1] (concentration 2 ppm) is “−”; with B-16 melanoma cells [1] (concentration 4 ppm), “±”; in the data set on B-16 melanoma cells [1] (concentration 6 ppm) it was “±”; in the data set on B-16 melanoma cells [1] (concentration 8 ppm), “±”; in the data set with B-16 melanoma cells [1] (concentration 10 ppm), “+”; in the data set with B-16 melanoma cells [1] (concentration 15 ppm) it was “+”. Further, the Whitening degree result with B-16 melanoma cells [1] (concentration 25 ppm) and with B-16 melanoma cells [1] (concentration 50 ppm) was “+” in each case. For the same molecule, in the data set on B-16 melanoma cells [2], the “cell-survival rate at the added concentration showing a whitening degree almost identical to vitamin C-magnesium phosphate at 450 ppm” value (“cell-survival rate … at 450 ppm” for short) is listed as 99-100%. In addition, the “Cell-Survival Rate” value with B-16 melanoma cells [2] (2 ppm) amounted to 100%; in the data set with B-16 melanoma cells [2] (4 ppm), 100%; in the data set with B-16 melanoma cells [2] (6 ppm), 100%; in the data set with B-16 melanoma cells [2] (8 ppm), 100%; in the data set on B-16 melanoma cells [2] (10 ppm), 99%; in the data set with B-16 melanoma cells [2] (15 ppm) it was 83%. Also, the “Cell-Survival Rate” value in the data set with B-16 melanoma cells [2] (25 ppm) amounted to 76%; with B-16 melanoma cells [2] (50 ppm), 69%; in the data set with B-16 melanoma cells [2] (100 ppm), 60%; with B-16 melanoma cells [2] (200 ppm), 51%. The “oil-solubility, in words” value in “Solubility (oil / water)” was “oil-soluble”.
For `CC1(C)CC[C@]2(CO)CC[C@]3(C)C(=CC[C@@H]4[C@@]5(C)CC[C@H](O)C(C)(C)[C@@H]5CC[C@]43C)[C@@H]2C1` [Erythrodiol, erythrodiol], the Whitening degree result in the data set with B-16 melanoma cells [1] (concentration 2 ppm), in the data set on B-16 melanoma cells [1] (concentration 4 ppm), with B-16 melanoma cells [1] (concentration 6 ppm), in the data set on B-16 melanoma cells [1] (concentration 8 ppm), in the data set on B-16 melanoma cells [1] (concentration 10 ppm) and in the data set on B-16 melanoma cells [1] (concentration 15 ppm) was “±” throughout. For the same molecule, the Whitening degree entry in the data set with B-16 melanoma cells [1] (concentration 25 ppm) and with B-16 melanoma cells [1] (concentration 50 ppm) was “+” each time. For the same molecule, in the data set on B-16 melanoma cells [2], the “cell-survival rate … at 450 ppm” value is 99-100%. Moreover, the “Cell-Survival Rate” value with B-16 melanoma cells [2] (2 ppm), in the data set with B-16 melanoma cells [2] (4 ppm), in the data set with B-16 melanoma cells [2] (6 ppm), in the data set on B-16 melanoma cells [2] (8 ppm), in the data set on B-16 melanoma cells [2] (10 ppm) and with B-16 melanoma cells [2] (15 ppm) was 100% in each case. Moreover, the “Cell-Survival Rate” value was found to be 100% in the data set on B-16 melanoma cells [2] (25 ppm), 97% in the data set with B-16 melanoma cells [2] (50 ppm), 85% in the data set on B-16 melanoma cells [2] (100 ppm) and 72% in the data set with B-16 melanoma cells [2] (200 ppm). Moreover, the “oil-solubility, in words” value in the data set “Solubility (oil / water)” is listed as “oil-soluble”.
Take `C[C@H]1[C@H](C)CC[C@]2(CO)CC[C@]3(C)C(=CC[C@@H]4[C@@]5(C)CC[C@H](O)C(C)(C)[C@@H]5CC[C@]43C)[C@H]12` [Uvaol, uvaol]: the Whitening degree result is on record as “−” in the data set with B-16 melanoma cells [1] (concentration 2 ppm); “−” with B-16 melanoma cells [1] (concentration 4 ppm); “−” in the data set on B-16 melanoma cells [1] (concentration 6 ppm); “±” in the data set on B-16 melanoma cells [1] (concentration 8 ppm); “+” in the data set with B-16 melanoma cells [1] (concentration 10 ppm); “+” with B-16 melanoma cells [1] (concentration 15 ppm). For the same molecule, the Whitening degree entry with B-16 melanoma cells [1] (concentration 25 ppm) and with B-16 melanoma cells [1] (concentration 50 ppm) was “+” throughout. In addition, the “cell-survival rate … at 450 ppm” value in the data set with B-16 melanoma cells [2] was 99-100%. The “Cell-Survival Rate” value with B-16 melanoma cells [2] (2 ppm), in the data set on B-16 melanoma cells [2] (4 ppm), in the data set on B-16 melanoma cells [2] (6 ppm), in the data set with B-16 melanoma cells [2] (8 ppm), in the data set on B-16 melanoma cells [2] (10 ppm) and in the data set with B-16 melanoma cells [2] (15 ppm) was 100% throughout. The “Cell-Survival Rate” value was found to be 90% in the data set on B-16 melanoma cells [2] (25 ppm), 82% in the data set with B-16 melanoma cells [2] (50 ppm), 71% in the data set with B-16 melanoma cells [2] (100 ppm) and 61% in the data set with B-16 melanoma cells [2] (200 ppm). The “oil-solubility, in words” value in “Solubility (oil / water)” was “oil-soluble”.
